Laboratory results reported in US12637469B2, “1H-pyrazole derivative and application thereof as dual target inhibitor of Syk and VEGFR2” (Ocumension Therapeutics (Suzhou) Co., Ltd., priority 2020, dated 2026).

Key:
[1] = biological target: VEGFR2 kinase (KDR enzyme) (Homo sapiens, UniProt P35968); assay: In vitro inhibitory effect on VEGFR2 kinase (ADP-Glo enzymatic experiment); format: biochemical; conditions: read-out: IC50 (nM) for inhibition of VEFGR2 enzyme
Description: The VEGFR2 kinase assay kit is intended for measuring VEGFR2 kinase activity using Kinase-Glo®MAX as a detection reagent, and compound screening and analysis were conducted using the IC50 value of the compound as an indicator.
The ADP-GLO™ Kinase Assay is an analytical reaction in which a luminescent kinase is used to determine the adenosine diphosphate formed by the kinase; ADP is converted to ATP, i.e., an optical signal is generated by Ultra-Glo™ luciferase. The optical signal is positively correlated with ADP quantity and kinase activity. This assay is ideal for determining the activity of the compound, making it ideal for primary screening and kinase selectivity analysis. The ADP-Glo™ Kinase Assay can be used to monitor the activity of virtually any ADP-producing enzyme such as a kinase orATPase: • 1) The enzyme, substrate, ATP and inhibitor were diluted in a kinase buffer; • 2) 384-well plate: 1 μL of inhibitor or (5% dimethyl sulfoxide solution), 2 μL of KDR enzyme, 2 μL of matrix/ATP mixture; • 3) the mixture was incubated at room temperature for 60 minutes; • 4) 5 μL of ADP-GLO™ reagent was added; • 5) the mixture was incubated for 40 minutes at room temperature; • 6) 10 μL of kinase detection reagent was added; • 7) the mixture was incubated at room temperature for 30 minutes; • 8) the luminescence was recorded (integration time 0.5-1 sec). The data was shown in relative light units (rlu), which was directly related to the amount of […]. There was correlation between the percent of the conversion from ATP to ADP for each kinase amount and the corresponding signal-to-background ratio. • 9) Data analysis: (a) KDR enzyme was titrated with 50 μM of ATP, and the luminescent signal produced by KDR enzyme was shown; (b) staurosporine dose response was generated with 1.5 ng of KDR to determine the IC50 value of the inhibitor.

Syk kinase = biological target: T1, Syk kinase (Homo sapiens, UniProt P43405); assay: In vitro inhibitory effect on Syk kinase (HTRF enzymatic experiment); format: biochemical; conditions: ATP 2 μM, read-out: IC50 (nM) for inhibition of Syk enzyme
T1 construct: purchased Invitrogen PV3857
From the text: The interaction between the substrate and the enzyme was detected by HTRF, using the IC50 value of the compound as an indicator to evaluate the inhibitory effect of the compound on Syk kinase.
• Syk kinase (Invitrogen, PV3857) • DTT (Sigma #43815) • ATP (Sigma #A7699) • MgCl2 (Sigma #63020) • MnCl2 (Sigma #M1787) • EDTA (Invitrogen #15575-020) • HEPES Buffer (Invitrogen #15630-080) • HTRF® KinEASE™ TK (Cisbio #62TKOPEC, 20000 tests) • Low volume, 384-well, white polystyrene plate (Greiner #784075) • 384 Well Microplates (Greiner #781946) • Centrifuge (Eppendorf #5810R) • Pipette (Eppendorf) • Pipette (Greiner) • Pipette gun (Eppendorf) • Mutidorp Pipette • POD 810 Plate Assembler Automatic Microplate Pretreatment System • Envision Reader • Experimental Steps and Methods: • a) Compound dilution and plate-making: • 1) The compound powder was weighed, dissolved in a certain amount of DMSO at an initial concentration of 10 mM. • 2) The compound was diluted to a concentration of 0.74 mM, and plated with POD18, 135 nL per well, the starting compound concentration was 10 μM, and there were 11 concentration points, with 3-fold descending serial dilutions. • b) Enzyme-substrate reaction stage: • 1) Preparation and dilution of the experimental buffer: the 5×HTRF Buffer in the kit was diluted to 1×, and specified amounts of DTT and MgCl2 solutions were added for use. • 2) SYK enzyme reaction solution was prepared with 1×HTRF Buffer so that the final reaction concentration of SYK kinase was 0.0156 ng/μL. • 3) TK-Substrate-biotin/ATP mixture was prepared so that the final substrate concentration was controlled at 0.2 μM. ATP concentration was controlled at 2 μM. • 4) The solution and the mixture were added with a Mutidorp pipette, SYK enzyme solution and TK-Substrate-biotin/ATP mixture were each added 5 μL per well, and incubated with 23 solution for 1 hour. • c) Detection stage: • 1) 13.33 mL of ethylenediaminetetraacetic acid solution was added to the detection buffer of the kit, and specified amounts of Eu-labeled antibody and XL-665 were added to prepare the detection solution. • 2) The solution was added with a Mutidorp pipette, 10 μL of detection solution per well, and incubated with 23 solution for 1 hour. The reaction of the enzyme and substrate mixture was stopped. • 3) After centrifugation, the reading was obtained on Envision. • d) Data analyzation: the data was analyzed using XL-Fit and the IC50 value of the compound was calculated.

VEGFR2 kinase (KDR enzyme), sequence (P35968 20-1356, species assumed): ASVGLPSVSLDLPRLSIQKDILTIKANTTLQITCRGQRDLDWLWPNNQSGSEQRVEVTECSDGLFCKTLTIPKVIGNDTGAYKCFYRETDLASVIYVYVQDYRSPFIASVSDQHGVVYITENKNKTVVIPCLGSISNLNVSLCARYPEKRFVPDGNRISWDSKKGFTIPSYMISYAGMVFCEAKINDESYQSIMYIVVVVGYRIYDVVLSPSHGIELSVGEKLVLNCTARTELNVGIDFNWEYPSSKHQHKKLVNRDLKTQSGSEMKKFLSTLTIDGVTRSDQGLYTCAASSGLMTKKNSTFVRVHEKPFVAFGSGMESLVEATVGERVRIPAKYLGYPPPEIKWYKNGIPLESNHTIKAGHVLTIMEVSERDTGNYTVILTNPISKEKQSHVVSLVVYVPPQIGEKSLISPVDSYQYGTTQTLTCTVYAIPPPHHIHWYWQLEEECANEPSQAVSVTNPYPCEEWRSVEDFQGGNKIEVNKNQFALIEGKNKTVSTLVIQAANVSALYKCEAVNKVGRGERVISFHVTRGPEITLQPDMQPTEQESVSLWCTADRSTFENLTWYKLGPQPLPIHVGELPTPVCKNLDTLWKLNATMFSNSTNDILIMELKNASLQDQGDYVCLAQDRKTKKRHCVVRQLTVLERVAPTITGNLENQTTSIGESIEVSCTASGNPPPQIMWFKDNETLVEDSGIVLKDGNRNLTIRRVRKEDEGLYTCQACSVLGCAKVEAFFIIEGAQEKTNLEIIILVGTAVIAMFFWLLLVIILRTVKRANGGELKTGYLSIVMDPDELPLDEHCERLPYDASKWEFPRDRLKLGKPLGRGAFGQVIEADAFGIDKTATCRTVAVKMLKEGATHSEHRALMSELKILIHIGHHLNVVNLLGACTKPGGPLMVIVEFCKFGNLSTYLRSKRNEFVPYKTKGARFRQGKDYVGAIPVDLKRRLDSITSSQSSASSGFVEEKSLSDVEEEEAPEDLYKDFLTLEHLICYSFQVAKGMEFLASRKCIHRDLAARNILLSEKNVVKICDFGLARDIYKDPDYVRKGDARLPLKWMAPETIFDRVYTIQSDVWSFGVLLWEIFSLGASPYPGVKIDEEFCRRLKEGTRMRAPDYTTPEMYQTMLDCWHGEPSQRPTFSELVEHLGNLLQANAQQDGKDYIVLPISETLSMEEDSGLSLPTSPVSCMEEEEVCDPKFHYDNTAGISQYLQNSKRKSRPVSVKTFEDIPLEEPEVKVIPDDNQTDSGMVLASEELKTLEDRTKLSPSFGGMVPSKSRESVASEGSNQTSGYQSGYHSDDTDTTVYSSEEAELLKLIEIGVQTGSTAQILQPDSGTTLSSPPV

Row | IC50 [1] | IC50 (Syk kinase) | SMILES
1 | 88 nM | 315 nM | c1cn2c(n1)c(Nc1ccc(N3CCC4(CC3)COC4)cc1)nc1ccc(-c3cn[nH]c3)cc12 [Compound 12]
2 | 56 nM | 34 nM | c1cn2c(n1)c(Nc1ccc(C3CCOCC3)cc1)nc1ccc(-c3cn[nH]c3)cc12 [Compound 11]
3 | 31 nM | 30 nM | CC1(O)CCN(c2ccc(Nc3nc4ccc(-c5cn[nH]c5)cc4n4ccnc34)cc2)CC1 [Compound 8]
4 | 22 nM | 23 nM | N=S1(=O)CCN(c2ccc(Nc3nc4ccc(-c5cn[nH]c5)cc4n4ccnc34)cc2)CC1 [Compound 9]
5 | 42 nM | 34 nM | CN1CCCN(c2ccc(Nc3nc4ccc(-c5cn[nH]c5)cc4n4ccnc34)cc2)CC1 [Compound 7]
6 | 19 nM | 17 nM | c1cn2c(n1)c(Nc1ccc(N3CCN(C4COC4)CC3)cc1)nc1ccc(-c3cn[nH]c3)cc12 [Compound 5]
7 | 41 nM | 11 nM | CC(=O)N=S1(=O)CCN(c2ccc(Nc3nc4ccc(-c5cn[nH]c5)cc4n4ccnc34)cc2)CC1 [Compound 10]
8 | 44 nM | 50 nM | CN1CCN(c2ccc(Nc3nc4ccc(-c5cn[nH]c5)cc4n4ccnc34)cc2)CC1 [Compound 6]
9 | 31 nM | 125 nM | c1cn2c(n1)c(Nc1ccc(N3CCOCC3)cc1)nc1ccc(-c3cc[nH]n3)cc12 [Compound 2]
